Measured values published in patent US20200237773A1, “THERAPEUTIC COMBINATION OF A THIRD-GENERATION EGFR TYROSINE KINASE INHIBITOR AND A RAF INHIBITOR” (Novartis AG, priority 2017, published 2020).

Assays:
[1] = biological target: T1, wild-type (WT) EGFR (Homo sapiens, UniProt P00533); assay: Inhibition of wild-type EGFR by Compound A; conditions: at clinically relevant efficacious concentrations
[2] = tested on: EGFR mutant (L858R, ex19del and T790M) cancer models; assay: EGFR mutant cancer models (in vitro and in vivo), Compound A
[3] = tested on: xenograft models; assay: Xenograft models, Compound A; assay type: in vivo
[4] = tested on: EGFR-mutant NSCLC; assay: Previous study of EGF816 at 100 mg and 150 mg daily; assay type: in vivo, human; conditions: 100 mg daily compared with 150 mg daily
[5] = tested on: EGFR mutant NSCLC cell lines HCC4006, HCC827, PC9, MGH707; assay: Short-term viability assay (CellTiter-Glo, 5 days); assay type: cell-based
Method: FIG. 1A and FIG. 1B: Dose response curves in EGFR mutant NSCLC cell lines (FIG. 1A: HCC4006 and HCC827 cell lines. FIG. 1B: PC9 and MGH707 cell lines). for Compound B in the presence of DMSO (curves at the top of Figures) or 300nM EGF816 (“Cmpd A”-curves at the bottom of Figures). % Activity is a measure of cell number as read out by cell-titer glo. 0 represents the CTG value at Day 0 and 100 represents the value of untreated growth at day 5.
The potential efficacy of adding a MAPK pathway inhibitor such as Compound B to a third-generation EGFR tyrosine kinase inhibitor such as EGF816 in EGFR mutant NSCLC was assessed as follows. A panel of EGFR mutant NSCLC cell lines was treated with a fixed dose (300 nM) of
EGF816 (“Compound A”) or DMSO in combination with Compound B across a 10-dose range for 5 days.
PC9, HCC827, HCC4006, NCI-H1975 and MGH707 are all EGFR mutant NSCLC cell lines sensitive to EGF816. PC9, HCC827, HCC4006 and NCI-H1975 were obtained from the cancer cell line encyclopedia (CCLE) database. MGH707 were obtained from Massachusetts General Hospital. All cell lines were maintained in RMPI media supplemented with 10% fetal bovine serum.
Compound A (EGF816) and Compound B were all re-suspended in DMSO at a concentration of 10 mM for a stock solution and further diluted for the experiments as indicated.
The following EGFR mutant (EGFR mt) NSCLC cell lines were plated at the following densities: HCC827 (exon 19 deletion, or ex19del for short) (500/well), HCC4006 (ex19del) (500/well), PC9 (ex19del)(500/well), and MGH707 parental (1000/well) into white 384-well plates (#3707, Corning, Oneonta, N.Y., USA) and stored in an incubator overnight at 37° C., 95% relative humidity, and 5% CO2. Compounds were serial diluted (1:3 dilution) in DMSO in an acoustic plate (#P-05525, Labcyte, San Jose, Calif., USA) using a Biomek liquid handler (Beckman, Indianapolis, Ind., USA). Compound A was dispensed into the first row of a Labcyte P-05525 source plate. The compound plates were then used to deliver combinations to assay plates using an acoustic dispenser (Echo-555, Labcyte, San Jose, Calif., USA). Each dispense was 50 nL which achieved a 1:1000 dilution (ie. 50 nL dispense of a 10 mM compound becomes 10 uM in 50 uL of cell solution). The combination treatment included a second dispense of 50 nL of Compound A to achieve a final concentration of 0.3 uM. Upon completion of dosing each assay plate was returned to an incubator (37° C., 95% relative humidity, and 5% CO2). 25 uL/well of CellTiter-Glo One Solution cell viability reagent (#G8462, Promega, Madison, Wis., USA) was added to an untreated plate of each cell line using a bulk dispenser (EL406, Biotek, Winooski, Vt., USA) and after 20 minutes of incubation at room temperature, the plates were read on a microplate reader (Envision, Perkin Elmer, Hopkington, Mass., USA). […] After 5 days of incubation, the assay plates are read using the same CellTiter-Glo assay reagent and read on the Envision microplate reader.

[6] = tested on: EGFR mutant NSCLC cell lines HCC4006, HCC827, PC9, MGH707; assay: Long-term viability assay (confluence, 14 days); assay type: cell-based
Method: FIG. 2A and FIG. 2B: Dose response of Compound B (“Cmpd B”) in EGFR mutant NSCLC lines in combination with Compound A (EGF816) (“Cmpd A”) (300 nM) (FIG. 2A: HCC4006 and HCC827 cell lines. FIG. 2B: PC9 and MGH707 cell lines). Cells were treated with fresh drug and imaged for confluence measurement twice per week for two weeks. Cell confluence was used as a surrogate for cell number. It is shown that a Raf-inhibitor in combination with EGF816 slows drug-tolerant cell outgrowth.
Combinations of Compound A and Compound B were further examined in long-term drug combination growth assays. The same EGFR mutant NSCLC cell lines as were used in Example 1 above were treated with EGF816 alone or EGF816 in combination with Compound B across a 5-dose range for 14 days as follows.
PC9 (6000/well), HCC827 (4000/well), HCC4006 (5000/well), and MGH707 (5000/well) cells were plated into 96-well plates and the following day treated with EGF816 (300 nM) +either DMSO or a range of doses of either Compound B (0.03, 0.1, 0.3, 1 and 3 uM) for two weeks. Drug was refreshed twice per week. Cell confluence was used as a surrogate for cell number and was measured by an incucyte zoom at t=0, 4, 7, 10 and 14 days treatment.

[7] = tested on: EGFR activating and acquired resistance mutants (L858R, ex19del and T790M); conditions: cited from earlier work
[8] = biological target: T1, wild-type (WT) EGFR; conditions: cited from earlier work
[9] = tested on: advanced non-small cell lung cancer (NSCLC) harboring T790M; conditions: cited from earlier work
[10] = biological target: BRAF kinase (Homo sapiens, UniProt P15056); assay: BRAF kinase inhibition; assay type: biochemical
Chain of BRAF kinase (P15056 whole entry): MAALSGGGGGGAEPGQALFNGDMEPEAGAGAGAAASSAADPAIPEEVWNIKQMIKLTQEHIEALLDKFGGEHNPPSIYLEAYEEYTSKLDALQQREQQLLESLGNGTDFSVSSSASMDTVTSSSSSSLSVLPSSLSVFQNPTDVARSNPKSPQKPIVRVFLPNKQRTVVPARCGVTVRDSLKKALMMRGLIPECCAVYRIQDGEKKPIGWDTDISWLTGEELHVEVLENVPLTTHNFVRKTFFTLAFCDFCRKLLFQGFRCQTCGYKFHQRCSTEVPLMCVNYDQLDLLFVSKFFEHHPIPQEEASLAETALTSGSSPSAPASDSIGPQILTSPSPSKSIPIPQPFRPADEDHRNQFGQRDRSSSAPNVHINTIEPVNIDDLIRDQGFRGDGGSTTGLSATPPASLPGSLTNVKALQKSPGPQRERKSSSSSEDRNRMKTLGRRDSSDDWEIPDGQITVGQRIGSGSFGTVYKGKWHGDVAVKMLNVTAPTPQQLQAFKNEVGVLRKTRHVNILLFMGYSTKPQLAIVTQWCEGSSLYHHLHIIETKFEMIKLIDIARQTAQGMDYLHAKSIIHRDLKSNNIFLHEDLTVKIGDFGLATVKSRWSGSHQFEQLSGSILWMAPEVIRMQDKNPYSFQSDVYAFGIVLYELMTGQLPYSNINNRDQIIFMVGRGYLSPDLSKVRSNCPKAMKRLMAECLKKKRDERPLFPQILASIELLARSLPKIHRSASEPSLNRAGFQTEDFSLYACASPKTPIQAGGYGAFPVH

[11] = tested on: 456 kinases; assay: Kinase binding selectivity panel; conditions: out of 456 kinases tested
[12] = Anti-proliferative activity in cancer cell lines with MAPK-activating mutations; assay type: cell-based; conditions: Homo sapiens; range over A-375, A-375 with BRAFi/MEKi resistance alleles, MEL-JUSO, IPC-298, Calu-6; read-out: IC50, inhibition of proliferation
[13] = tested on: cell lines that have wild-type BRAF and RAS; assay: Anti-proliferative activity in wild-type BRAF and RAS cell lines; assay type: cell-based; conditions: Homo sapiens, read-out: IC50, inhibition of proliferation
[14] = tested on: Calu-6 (KRAS Q61K), NCI-H358 (KRAS G12C), Hey-A8 (KRAS G12D, BRAF G464E), SK-MEL-30 xenografts; assay: In vivo tumor xenografts, Compound B
[15] = tested on: CYP3A4/5; assay: CYP3A4/5 inhibition; assay type: in vitro ADME

T1 sequence (P00533 25-1210): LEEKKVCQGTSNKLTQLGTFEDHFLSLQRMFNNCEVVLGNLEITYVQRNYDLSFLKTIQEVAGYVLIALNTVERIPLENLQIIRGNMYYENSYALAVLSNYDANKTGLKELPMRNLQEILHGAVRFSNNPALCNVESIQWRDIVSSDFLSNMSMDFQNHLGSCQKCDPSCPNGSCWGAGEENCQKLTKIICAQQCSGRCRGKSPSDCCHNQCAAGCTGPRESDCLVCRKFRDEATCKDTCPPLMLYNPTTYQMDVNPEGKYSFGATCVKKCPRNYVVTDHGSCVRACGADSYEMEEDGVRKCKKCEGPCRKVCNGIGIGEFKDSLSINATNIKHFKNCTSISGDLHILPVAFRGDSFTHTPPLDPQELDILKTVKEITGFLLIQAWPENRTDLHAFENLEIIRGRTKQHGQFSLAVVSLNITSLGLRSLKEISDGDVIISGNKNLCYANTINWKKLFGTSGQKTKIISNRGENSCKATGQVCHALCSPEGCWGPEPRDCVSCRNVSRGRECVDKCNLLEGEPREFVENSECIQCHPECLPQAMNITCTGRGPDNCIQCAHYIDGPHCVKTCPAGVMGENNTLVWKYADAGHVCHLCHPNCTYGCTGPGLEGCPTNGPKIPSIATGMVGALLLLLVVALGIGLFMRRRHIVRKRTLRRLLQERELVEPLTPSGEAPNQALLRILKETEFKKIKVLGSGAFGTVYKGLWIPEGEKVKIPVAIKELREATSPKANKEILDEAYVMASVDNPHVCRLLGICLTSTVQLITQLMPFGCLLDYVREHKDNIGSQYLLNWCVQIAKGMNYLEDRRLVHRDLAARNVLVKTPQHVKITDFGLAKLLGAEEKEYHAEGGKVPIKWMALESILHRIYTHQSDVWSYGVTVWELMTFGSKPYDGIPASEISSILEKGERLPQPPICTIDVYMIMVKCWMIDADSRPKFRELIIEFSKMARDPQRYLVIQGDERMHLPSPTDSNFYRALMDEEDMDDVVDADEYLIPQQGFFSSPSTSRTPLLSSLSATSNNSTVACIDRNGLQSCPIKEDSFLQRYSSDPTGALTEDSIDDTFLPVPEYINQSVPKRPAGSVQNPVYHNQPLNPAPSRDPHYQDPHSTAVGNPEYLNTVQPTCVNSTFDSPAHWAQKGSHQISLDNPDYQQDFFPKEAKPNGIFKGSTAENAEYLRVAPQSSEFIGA

Cc1cc(C(=O)Nc2nc3cccc(Cl)c3n2[C@@H]2CCCCN(C(=O)/C=C/CN(C)C)C2)ccn1 [Compound A, (R,E)-N-(7-chloro-1-(1-(4-(dimethylamino)but-2-enoyl)azepan-3-yl)-1H-benzo[d]imidazol-2-yl)-2-methylisonicotinamide]
WT EGFR inhibition [1]: no indication of WT EGFR inhibition | efficacy in EGFR mutant cancer models [2]: significant efficacy | tolerability / body weight ([3]; at efficacious doses): well tolerated with no body weight loss | anti-tumor efficacy ([3]; several xenograft models): Dose-dependent anti-tumor efficacy | overall response rates [4]: similar | rates of rash and diarrhoea [4]: lower rates of rash and diarrhoea | cell growth (% Activity, cell-titer glo) ([5]; EGF816 alone 300 nM, 5 days, all cell lines): robust growth suppression | sensitivity to single agent EGF816 ([6]; 300 nM EGF816 alone, PC9): more exquisitely sensitive | inhibition of EGFR mutants [7]: selectively inhibits | effect on wild-type EGFR [8]: sparing | antitumor activity in patients [9]: durable antitumor activity

Cc1ccc(NC(=O)c2ccnc(C(F)(F)F)c2)cc1-c1cc(OCCO)nc(N2CCOCC2)c1 [Compound B, N-(3-(2-(2-hydroxyethoxy)-6-morpholinopyridin-4-yl)-4-methylphenyl)-2-(trifluoromethyl)isonicotinamide]
IC50 [10]: 0.73 nM | number of other kinases whose binding is inhibited to a similar degree [11]: 2 | IC50 [12]: 200 to 1200 nM | IC50 [13]: > 20000 nM | tumor response ([14]; KRAS-mutant Calu-6, NCI-H358, Hey-A8 and NRAS-mutant SK-MEL-30 xenografts): tumor regression | dose dependence of anti-tumor effects ([14]; in all cases): dose-dependent | tolerability / body weight ([14]; in all cases): well tolerated with minimal body weight loss | CYP3A4/5 inhibition [15]: inhibitor of CYP3A4/5 | cell growth (% Activity, cell-titer glo) ([5]; Compound B added to 300 nM EGF816, 5 days, HCC4006, HCC827 and PC9): enhanced suppression of cell growth | cell growth (% Activity, cell-titer glo) ([5]; Compound B added to 300 nM EGF816, 5 days, MGH707): less effective | cell growth (% Activity, cell-titer glo) ([5]; Compound B single agent (DMSO), 5 days, all cell lines): suppressed | sensitization to Compound B by EGF816 ([5]; with 300 nM EGF816 compared to single agent, HCC4006, HCC827 and PC9): active at lower doses | residual outgrowth of EGFR mutant persister cells (cell confluence) ([6]; Compound B 0.03-3 uM with 300 nM EGF816, 14 days): markedly suppressed | response to the combination (cell confluence) ([6]; Compound B with 300 nM EGF816, 14 days, MGH707): most refractory | cell number (cell confluence) ([6]; Compound B with 300 nM EGF816, 14 days, PC9): more pronounced drop in cell number
